Our source for the IC50 values is patent US9850245B2 (Merck Sharp & Dohme Corp., priority 2014, dated 2017).

For the assay, the target named is ROMK (Homo sapiens (Human), UniProt P48048). In words: Thallium Flux Assay. The format is cell-based. On the procedure: A Thallium Flux Assay was performed on the compounds of the Examples. This assay has been described previously; see, e.g., PCT Published Application WO 2013/062900.

SMILES strings stand for the structures.

ROMK, sequence (P48048 whole entry): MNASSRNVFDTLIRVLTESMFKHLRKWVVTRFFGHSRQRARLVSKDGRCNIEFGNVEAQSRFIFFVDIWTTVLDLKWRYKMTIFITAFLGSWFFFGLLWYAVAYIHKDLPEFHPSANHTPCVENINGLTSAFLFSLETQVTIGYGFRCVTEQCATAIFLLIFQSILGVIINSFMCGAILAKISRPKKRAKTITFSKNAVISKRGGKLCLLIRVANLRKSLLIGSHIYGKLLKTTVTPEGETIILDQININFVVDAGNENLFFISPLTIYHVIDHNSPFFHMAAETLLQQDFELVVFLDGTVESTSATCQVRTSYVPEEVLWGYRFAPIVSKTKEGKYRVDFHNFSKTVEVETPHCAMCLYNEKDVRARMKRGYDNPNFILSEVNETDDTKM

One may read the IC50 as the concentration at which inhibition is half-maximal. A lower IC50 goes with inhibition by little substance. Consider `CC1=C(N2CCNC3(CCN(CC(O)c4ccc(-n5cnnn5)nc4C)CC3)C2=O)COC1=O` (single isomer, unassigned) [Example 2B, 9-(2-hydroxy-2-(2-methyl-6-(1H-tetrazol-1-yl)pyridin-3-yl)ethyl)-4-(4-methyl-5-oxo-2,5-dihydrofuran-3-yl)-1,4,9-triazaspiro[5.5]undecan-5-one], for which 56.2 nM corresponded to half-maximal inhibition (IC50).
The same measure for `CC1=C(N2CCNC3(CCN(CC(O)c4cnc(-n5cnnn5)cn4)CC3)C2=O)COC1=O` (single isomer, unassigned) [Example 3A, 9-(2-(5-(1H-tetrazol-1-yl)pyrazin-2-yl)-2-hydroxyethyl)-4-(4-methyl-5-oxo-2,5-dihydrofuran-3-yl)-1,4,9-triazaspiro[5.5]undecan-5-one]: 114 nM; for `CC1=C(N2CCNC3(CCN(CC(O)c4cnc(-n5cnnn5)cn4)CC3)C2=O)COC1=O` (single isomer, unassigned) [Example 3B, 9-(2-(5-(1H-tetrazol-1-yl)pyrazin-2-yl)-2-hydroxyethyl)-4-(4-methyl-5-oxo-2,5-dihydrofuran-3-yl)-1,4,9-triazaspiro[5.5]undecan-5-one]: 142 nM; for `CC1=C(N2CCNC3(CCN(CC(O)c4ccc(-n5cnnn5)cc4)CC3)C2=O)COC1=O` (single isomer, unassigned) [Example 5A, 9-(2-(4-(1H-tetrazol-1-yl)phenyl)-2-hydroxyethyl)-4-(4-methyl-5-oxo-2,5-dihydrofuran-3-yl)-1,4,9-triazaspiro[5.5]undecan-5-one]: 42.5 nM.
Then `CC1=C(N2CCNC3(CCN(CC(O)c4ccc(-n5cnnn5)cc4)CC3)C2=O)COC1=O` (single isomer, unassigned) [Example 5B, 9-(2-(4-(1H-tetrazol-1-yl)phenyl)-2-hydroxyethyl)-4-(4-methyl-5-oxo-2,5-dihydrofuran-3-yl)-1,4,9-triazaspiro[5.5]undecan-5-one], with 36.8 nM; and `CC1=C(N2C(=O)C3(CCN(C[C@@H](O)c4ccc(-n5cnnn5)nc4)CC3)OCC2C)COC1=O` (single isomer, unassigned) [Example 10A], with 155 nM; and `CC1=C(N2C(=O)C3(CCN(C[C@H](O)c4ccc(-n5cnnn5)nc4)CC3)OCC2C)COC1=O` (single isomer, unassigned) [Example 10B], with 307 nM.
`CC1=C(N2C(=O)C3(CCN(C[C@@H](O)c4ccc(-n5cnnn5)nc4)CC3)OCC2C)COC1=O` (single isomer, unassigned) [Example 10C] had an IC50 of 317 nM.
As for `CC1=C(N2C(=O)C3(CCN(C[C@H](O)c4ccc5c(c4C)COC5=O)CC3)OCC2C)COC1=O` (single isomer, unassigned) [Example 11], the IC50 is 267 nM.
Then `CC1COC2(CCN(C[C@@H](O)c3ccc(-n4cnnn4)nc3)CC2)C(=O)N1C1=CC(=O)OC1` (single isomer, unassigned) [Example 13A], with 230 nM; and `CC1COC2(CCN(C[C@H](O)c3ccc(-n4cnnn4)nc3)CC2)C(=O)N1C1=CC(=O)OC1` (single isomer, unassigned) [Example 13B], with 415 nM.
In the case of `Cc1c([C@@H](O)CN2CCC3(CC2)OCC(C)N(C2=CC(=O)OC2)C3=O)ccc2c1COC2=O` (single isomer, unassigned) [Example 14], half-maximal inhibition (IC50) was put at 264 nM.
Molecule `Cc1nc(-n2cnnn2)ccc1C(O)CN1CCC2(CC1)CN(C1=CC(=O)OC1)C(=O)O2` (single isomer, unassigned) [Example 17, 8-(2-hydroxy-2-(2-methyl-6-(1H-tetrazol-1-yl)pyridin-3-yl)ethyl)-3-(5-oxo-2,5-dihydrofuran-3-yl)-1-oxa-3,8-diazaspiro[4.5]decan-2-one] returned an IC50 of 468 nM.
The molecule `CC1=C(N2CCOC3(CCN(CC(O)c4cnc(-n5cnnn5)cn4)CC3)C2=O)COC1=O` (single isomer, unassigned) [Example 18B, 9-(2-(5-(1H-tetrazol-1-yl)pyrazin-2-yl)-2-hydroxyethyl)-4-(4-methyl-5-oxo-2,5-dihydrofuran-3-yl)-1-oxa-4,9-diazaspiro[5.5]undecan-5-one] registered an IC50 of 110 nM.
The same measure for `Cc1nc(-n2cnnn2)ccc1C(O)CN1CCC2(CC1)CCN(C1=CC(=O)OC1)C(=O)O2` (single isomer, unassigned) [Example 27, 9-(2-hydroxy-2-(2-methyl-6-(1H-tetrazol-1-yl)pyridin-3-yl)ethyl)-3-(5-oxo-2,5-dihydrofuran-3-yl)-1-oxa-3,9-diazaspiro[5.5]undecan-2-one]: 65.5 nM; for `Cc1cc(-n2cnnn2)ccc1C(O)CN1CCC2(CC1)CN(C1=CC(=O)OC1)CCO2` (single isomer, unassigned) [Example 30A, 4-(9-(2-hydroxy-2-(2-methyl-4-(1H-tetrazol-1-yl)phenyl)ethyl)-1-oxa-4,9-diazaspiro[5.5]undecan-4-yl)furan-2(5H)-one]: 477 nM.
The same measure for `Cc1cc(-n2cnnn2)ccc1C(O)CN1CCC2(CC1)CN(C1=CC(=O)OC1)CCO2` (single isomer, unassigned) [Example 30B, 4-(9-(2-hydroxy-2-(2-methyl-4-(1H-tetrazol-1-yl)phenyl)ethyl)-1-oxa-4,9-diazaspiro[5.5]undecan-4-yl)furan-2(5H)-one]: 74.3 nM; for `CC1=C(N2CCOC3(CCN(CC(O)c4ccc(-n5cnnn5)cc4C)CC3)C2)COC1=O` (single isomer, unassigned) [Example 31A, 4-(9-(2-hydroxy-2-(2-methyl-4-(1H-tetrazol-1-yl)phenyl)ethyl)-1-oxa-4,9-diazaspiro[5.5]undecan-4-yl)-3-methylfuran-2(5H)-one]: 126 nM; for `CC1=C(N2CCOC3(CCN(CC(O)c4ccc(-n5cnnn5)cc4C)CC3)C2)COC1=O` (single isomer, unassigned) [Example 31B, 4-(9-(2-hydroxy-2-(2-methyl-4-(1H-tetrazol-1-yl)phenyl)ethyl)-1-oxa-4,9-diazaspiro[5.5]undecan-4-yl)-3-methylfuran-2(5H)-one]: 26 nM.
The same measure for `CC1=C(N2CCOC3(CCN(CC(O)c4ccc(-n5cnnn5)cc4F)CC3)C2)COC1=O` (single isomer, unassigned) [Example 32A, 4-(9-(2-(2-fluoro-4-(1H-tetrazol-1-yl)phenyl)-2-hydroxyethyl)-1-oxa-4,9-diazaspiro[5.5]undecan-4-yl)-3-methylfuran-2(5H)-one]: 37.4 nM.
`CC1=C(N2CCOC3(CCN(CC(O)c4ccc(-n5cnnn5)cc4F)CC3)C2)COC1=O` (single isomer, unassigned) [Example 32B, 4-(9-(2-(2-fluoro-4-(1H-tetrazol-1-yl)phenyl)-2-hydroxyethyl)-1-oxa-4,9-diazaspiro[5.5]undecan-4-yl)-3-methylfuran-2(5H)-one] displayed an IC50 of 123 nM.
With `COc1cc(-n2cnnn2)ccc1C(O)CN1CCC2(CC1)CN(C1=C(C)C(=O)OC1)CCO2` (single isomer, unassigned) [Example 33A, 4-(9-(2-hydroxy-2-(2-methoxy-4-(1H-tetrazol-1-yl)phenyl)ethyl)-1-oxa-4,9-diazaspiro[5.5]undecan-4-yl)-3-methylfuran-2(5H)-one], the IC50 is 30.5 nM.
The same measure for `COc1cc(-n2cnnn2)ccc1C(O)CN1CCC2(CC1)CN(C1=C(C)C(=O)OC1)CCO2` (single isomer, unassigned) [Example 33B, 4-(9-(2-hydroxy-2-(2-methoxy-4-(1H-tetrazol-1-yl)phenyl)ethyl)-1-oxa-4,9-diazaspiro[5.5]undecan-4-yl)-3-methylfuran-2(5H)-one]: 91.9 nM; for `CC1=C(N2CCN(C)C3(CCN(CC(O)c4ccc(-n5cnnn5)nc4C)CC3)C2=O)COC1=O` (single isomer, unassigned) [Example 35A, 9-(2-hydroxy-2-(2-methyl-6-(1H-tetrazol-1-yl)pyridin-3-yl)ethyl)-1-methyl-4-(4-methyl-5-oxo-2,5-dihydrofuran-3-yl)-1,4,9-triazaspiro[5.5]undecan-5-one]: 41.8 nM.
The same measure for `CC1=C(N2CCN(C)C3(CCN(CC(O)c4ccc(-n5cnnn5)nc4C)CC3)C2=O)COC1=O` (single isomer, unassigned) [Example 35B, 9-(2-hydroxy-2-(2-methyl-6-(1H-tetrazol-1-yl)pyridin-3-yl)ethyl)-1-methyl-4-(4-methyl-5-oxo-2,5-dihydrofuran-3-yl)-1,4,9-triazaspiro[5.5]undecan-5-one]: 144 nM; for `CC1=C(N2CCCOC3(CCN(CC(O)c4ccc(-n5cnnn5)nc4C)CC3)C2=O)COC1=O` (single isomer, unassigned) [Example 38, 3-(2-hydroxy-2-(2-methyl-6-(1H-tetrazol-1-yl)pyridin-3-yl)ethyl)-11-(4-methyl-5-oxo-2,5-dihydrofuran-3-yl)-7-oxa-3,11-diazaspiro[5.6]dodecan-12-one]: 526 nM.
Then `CC1=C(N2CCOC3(CCN(CC(O)c4cnc(-n5cnnn5)cn4)CC3)CC2)COC1=O` (single isomer, unassigned) [Example 40, 4-(3-(2-(5-(1H-tetrazol-1-yl)pyrazin-2-yl)-2-hydroxyethyl)-7-oxa-3,10-diazaspiro[5.6]dodecan-10-yl)-3-methylfuran-2(5H)-one], with 118 nM.
`CC1=C(N2CCOC3(CCN(C[C@H](O)c4ccc5c(c4C)COC5=O)CC3)CC2)COC1=O` (single isomer, unassigned) [Example 41] returned an IC50 of 32.2 nM.
With `CC1=C(N2CCOC3(CCN(CC(O)c4ccc(-n5cnnn5)cn4)CC3)C2=O)COC1=O` (single isomer, unassigned) [Example 43, 9-(2-(5-(1H-tetrazol-1-yl)pyridin-2-yl)-2-hydroxyethyl)-4-(4-methyl-5-oxo-2,5-dihydrofuran-3-yl)-1-oxa-4,9-diazaspiro[5.5]undecan-5-one], the IC50 was determined as 37.2 nM.
Take `CC1=C(N2CCOC3(CC4CCC(C3)N4CC(O)c3cnc(-n4cnnn4)cn3)C2=O)COC1=O` (single isomer, unassigned) [Example 44]: the IC50 was 478 nM.
